Source: patent US11412737B2, “Mixtures of beflubutamid or optically enriched forms thereof with a second herbicide” (FMC Corporation, priority 2016, dated 2022)

Tests used:
Velvetleaf (ABUTH) = assay: pre-emergence test, weed control; format: in vivo, Abutilon theophrasti; conditions: pre-emergent, 21 DAT, rate g ai/ha by row: r4 94, r5 125, r6 250, r7 125, r8 250, r9 500, r10 94+125, r11 125+125, r12 94+250, r13 125+250, r14 94+500, r15 125+500
Experimental: (§1) Test compositions containing the test compounds were diluted with water to provide the appropriate test rate concentrations.
(§2) For pre-emergence testing, four disposable fiber flats (6 inch by 10 inch) for each rate of application of each herbicide solution were filled with top soil, to which seeds of each species were planted in furrows made by a template pressed on the top of the soil. The furrows were covered with soil after planting the seed and were watered well before application of the test compounds.
(§3) Fiber flats designated for treatment were placed in a spray chamber having a static platform and a movable sprayer and the height of the spray nozzle was 10.5 inches above the soil level. Once the sprayer was calibrated using water for spray volume of 30 gallons per acre, flats were sprayed with sprayer at a speed to receive a coverage equivalent of 30 gallons per acre. The application rates are those shown in the Tables below for the individual herbicidal solutions and the herbicide compositions of this invention. The pre-emergence flats were immediately placed in the greenhouse and watered lightly after treatment. Thereafter they were regularly watered and fertilized for the duration of the test.
(§4) The control of weeds was evaluated in each experimental test at 21 for wheat and 28 days after treatment (DAT) for all species. Data were analyzed using Minitab software at 95% confidence interval. The results, shown as an average of the replications, were compared with results observed in untreated control flats in the same tests. Percent control was determined by a method similar to the 0 to 100 rating system disclosed in “Research Methods in Weed Science,” 2nd ed., B. Truelove, Ed.; Southern Weed Science Society; Auburn University, Auburn, Ala., 1977. The rating system is as follows in Table 1.

Barley (B) = assay: post-emergence test, crop injury; format: in vivo; conditions: post-emergent, 28 DAT, BFL racemic, height at application 14 cm; rate g ai/ha by row: r7 94, r8 125, r9 188, r10 125, r11 250, r12 94+125, r13 125+125, r14 188+125, r15 94+250, r16 125+250, r17 188+250
Experimental: as §1
For post-emergence testing, seeds of each species for each rate of application of each herbicide solution were planted in 7.5 cm×7.5 cm plastic pots filled with potting soil. The seeds were germinated and the resulting plants were allowed to grow in a greenhouse until they reached a growth stage, such as height, suitable for testing. […] Pots of post-emergent treated plants were returned to the greenhouse and not watered for 24 hours after treatment. Thereafter they were regularly watered and fertilized for the duration of the test.
The control of weeds was evaluated in each experimental test at 21 for wheat and 28 days after treatment (DAT) for all species. […] The rating system is as follows in Table 1.

Green foxtail (SETVI) = assay: pre-emergence test, weed control; format: in vivo, Setaria viridis; conditions: pre-emergent, 28 DAT
Experimental: as §1, §2, §3, §4

Blackgrass (ALOMY) = assay: pre-emergence test, weed control; format: in vivo; conditions: pre-emergent, 28 DAT
How it was run: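 Seeds sown in top-soil flats and watered, then sprayed pre-emergence at 30 gallons per acre from a nozzle 10.5 inches above soil; flats kept in the greenhouse with regular watering and fertilizing. Percent control (0–100 scale versus untreated flats) scored at 21 DAT for wheat and 28 DAT for all species, averaged over replicates.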

[1] = (+)-BFL >95% e.e., rate g ai/ha by row: r6 62.5, r7 125, r8 62.5, r9 125, r10 222, r11 445, r12 22.5, r13 45, r14 62.5+62.5, r15 125+62.5, r16 62.5+125, r17 125+125, r18 62.5+222, r19 125+222, r20 62.5+445, r21 125+445, r22 62.5+22.5, r23 125+22.5, r24 62.5+45, r25 125+45, 62.5 g ai/ha
[2] = (+)-BFL >95% e.e., rate g ai/ha by row: r6 62.5, r7 125, r8 62.5, r9 125, r10 222, r11 445, r12 22.5, r13 45, r14 62.5+62.5, r15 125+62.5, r16 62.5+125, r17 125+125, r18 62.5+222, r19 125+222, r20 62.5+445, r21 125+445, r22 62.5+22.5, r23 125+22.5, r24 62.5+45, r25 125+45, 125 g ai/ha
[3] = (−)-BFL >95% e.e., rate g ai/ha by row: r6 62, r7 125, r8 125, r9 250, r10 445, r11 890, r12 45, r13 90, r14 62+125, r15 125+125, r16 62+250, r17 125+250, r18 62+445, r19 125+445, r20 62+890, r21 125+890, r22 62+45, r23 125+45, r24 62+90, r25 125+90, 125 g ai/ha
[4] = (−)-BFL >95% e.e., rate g ai/ha by row: r6 62, r7 125, r8 125, r9 250, r10 445, r11 890, r12 45, r13 90, r14 62+125, r15 125+125, r16 62+250, r17 125+250, r18 62+445, r19 125+445, r20 62+890, r21 125+890, r22 62+45, r23 125+45, r24 62+90, r25 125+90, 250 g ai/ha

Structure (SMILES)	percentage of weed control, Velvetleaf ABUTH (Velvetleaf (ABUTH); 94 g ai/ha) [%]	percentage of weed control, Velvetleaf ABUTH (Velvetleaf (ABUTH); 125 g ai/ha) [%]	percentage of weed control, Velvetleaf ABUTH (Velvetleaf (ABUTH); 250 g ai/ha) [%]	percentage of crop injury, B (Barley (B)) [%]	percentage of weed control, SETVI (Green foxtail (SETVI); [1]) [%]	percentage of weed control, SETVI (Green foxtail (SETVI); [2]) [%]	percentage of weed control, SETVI (Green foxtail (SETVI); [3]) [%]	percentage of weed control, SETVI (Green foxtail (SETVI); [4]) [%]	percentage of weed control, ALOMY (Blackgrass (ALOMY); [1]) [%]	percentage of weed control, ALOMY (Blackgrass (ALOMY); [2]) [%]	percentage of weed control, ALOMY (Blackgrass (ALOMY); [3]) [%]	percentage of weed control, ALOMY (Blackgrass (ALOMY); [4]) [%]
CCC(Oc1ccc(F)c(C(F)(F)F)c1)C(=O)NCc1ccccc1 (racemic) [BFL, 2-[4-fluoro-3-(trifluoromethyl)phenoxy]-N-(phenylmethyl)butanamide]	10	15	14	1	–	–	–	–	–	–	–	–
CC1(C)CON(Cc2ccc(Cl)cc2Cl)C1=O [DCI, 2-(2,4-dichlorophenyl)methyl-4,4-dimethyl-3-isoxazolidinone]	–	–	–	–	91	99	98	99	65	64	98	99
